Legend:
Homo sapiens [1] = species on record: Homo sapiens; assay: Liver toxicity in human assessed as induction of drug-induced liver injury by measuring severity class index
Homo sapiens [2] = species on record: Homo sapiens; assay: Liver toxicity in human assessed as induction of drug-induced liver injury by measuring verified drug-induced liver injury concern status
For DILI severity class in this document: key of the grades not given here.

| SMILES | DILI_severity_class (Homo sapiens [1]) | DILI_Concern (Homo sapiens [2]) |
| --- | --- | --- |
| CCOc1nc2cccc(C(=O)O)c2n1Cc1ccc(-c2ccccc2-c2nnn[nH]2)cc1 | 3 | Less-Dili-Concern |
| CCCc1nc2c(C)cc(-c3nc4ccccc4n3C)cc2n1Cc1ccc(-c2ccccc2C(=O)O)cc1 | 3 | Less-Dili-Concern |
| CCCCN1C[C@H](O)[C@@H](O)[C@H](O)[C@H]1CO | 0 | No-Dili-Concern |
| CCCCC(=O)N(Cc1ccc(-c2ccccc2-c2nnn[nH]2)cc1)[C@H](C(=O)O)C(C)C | 3 | Less-Dili-Concern |
| CC[C@H](C)[C@H](NC(=O)[C@H](CC(=O)O)NC(=O)[C@H](CC(C)C)NC(=O)[C@H](CC(C)C)NC(=O)[C@H](CCCCN)NC(=O)[C@H](CCCN=C(N)N)NC(=O)[C@H](CC(N)=O)NC(=O)[C@H](CO)NC(=O)[C@H](Cc1cnc[nH]1)NC(=O)[C@H](C)NC(=O)[C@H](CCC(N)=O)NC(=O)[C@H](CCC(N)=O)NC(=O)[C@H](C)NC(=O)[C@H](CC(C)C)NC(=O)[C@H](CCC(N)=O)NC(=O)[C@H](CC(=O)O)NC(=O)[C@H](C)NC(=O)[C@H](CCCCN)NC(=O)[C@@H](NC(=O)[C@H](CCSC)NC(=O)[C@H](CCC(=O)O)NC(=O)[C@H](CC(C)C)NC(=O)[C@@H](NC(=O)[C@H](CCC(=O)O)NC(=O)[C@H](CCCN=C(N)N)NC(=O)[C@H](CC(C)C)NC(=O)[C@H](CC(C)C)NC(=O)[C@H](Cc1cnc[nH]1)NC(=O)[C@H](Cc1ccccc1)NC(=O)[C@@H](NC(=O)[C@H](CC(C)C)NC(=O)[C@H](CC(=O)O)NC(=O)[C@H](CC(C)C)NC(=O)[C@H](CO)NC(=O)[C@@H](NC(=O)[C@@H]1CCCN1C(=O)[C@@H]1CCCN1C(=O)[C@H](CCC(=O)O)NC(=O)[C@H](CCC(N)=O)NC(=O)[C@@H](N)CO)[C@@H](C)CC)[C@@H](C)O)C(C)C)[C@@H](C)O)C(=O)N[C@@H](C)C(N)=O | 0 | No-Dili-Concern |
| CC(C)(C)NC(=O)[C@@H]1C[C@@H]2CCCC[C@@H]2CN1C[C@@H](O)[C@H](Cc1ccccc1)NC(=O)[C@H](CC(N)=O)NC(=O)c1ccc2ccccc2n1 | 3 | Less-Dili-Concern |
| CCOC(=O)[C@H](CCc1ccccc1)N[C@@H](C)C(=O)N1[C@H](C(=O)O)C[C@@H]2CCC[C@@H]21 | 7 | Less-Dili-Concern |
| COc1cc2c(cc1OC)[C@@H](Cc1cc(OC)c(OC)c(OC)c1)[N+](C)(CCCOC(=O)CC/C=C/CCC(=O)OCCC[N+]1(C)CCc3cc(OC)c(OC)cc3[C@H]1Cc1cc(OC)c(OC)c(OC)c1)CC2 (some centres undefined) | 0 | No-Dili-Concern |
| Cl.NCCNCCNCCN | 1 | No-Dili-Concern |
| O=C(O)[C@@H](S)[C@@H](S)C(=O)O | 2 | Less-Dili-Concern |
| C[C@@H](NCCCc1cccc(C(F)(F)F)c1)c1cccc2ccccc12 | 0 | No-Dili-Concern |
| CC[C@@H](C(N)=O)N1CCCC1=O | 8 | Less-Dili-Concern |
| CC(C)CN(C[C@@H](O)[C@H](Cc1ccccc1)NC(=O)O[C@H]1CO[C@H]2OCC[C@H]21)S(=O)(=O)c1ccc(N)cc1 | 8 | Most-Dili-Concern |
| COc1ccc(CC2c3cc(OC)c(OC)cc3CC[N+]2(C)CCC(=O)OCCCCCOC(=O)CC[N+]2(C)CCc3cc(OC)c(OC)cc3C2Cc2ccc(OC)c(OC)c2)cc1OC (centres undefined) | 0 | No-Dili-Concern |
| CC1=C(CC(=O)O)c2cc(F)ccc2/C1=C\c1ccc([S+](C)[O-])cc1 (centres undefined) | 8 | Most-Dili-Concern |
| CCOC(=O)[C@H](CCc1ccccc1)N[C@@H](C)C(=O)N1Cc2ccccc2C[C@H]1C(=O)O | 3 | Less-Dili-Concern |
| COCCCOc1cc(C[C@@H](C[C@H](N)[C@@H](O)C[C@H](C(=O)NCC(C)(C)C(N)=O)C(C)C)C(C)C)ccc1OC | 0 | Less-Dili-Concern |
| FC(F)(F)C(F)(F)C(F)(F)F | 0 | No-Dili-Concern |
| O=C(O)c1ccccc1-c1c2ccc(=O)cc-2oc2cc(O)ccc12 | 0 | No-Dili-Concern |
| CO/N=C(\C(=O)N[C@@H]1C(=O)N2C(C(=O)[O-])=C(C[N+]3(C)CCCC3)CS[C@H]12)c1csc(N)n1 | 3 | Less-Dili-Concern |
| CCCc1nn(C)c2c(=O)[nH]c(-c3cc(S(=O)(=O)N4CCN(C)CC4)ccc3OCC)nc12 | 3 | Less-Dili-Concern |
| CCC[C@@]1(CCc2ccccc2)CC(O)=C([C@H](CC)c2cccc(NS(=O)(=O)c3ccc(C(F)(F)F)cn3)c2)C(=O)O1 | 8 | Most-Dili-Concern |
| O=S(=O)(OC[C@H]1O[C@@H](O[C@]2(COS(=O)(=O)[O][Al]([OH])[OH])O[C@H](OS(=O)(=O)[O][Al]([OH])[OH])[C@@H](OS(=O)(=O)[O][Al]([OH])[OH])[C@@H]2OS(=O)(=O)[O][Al]([OH])[OH])[C@H](OS(=O)(=O)[O][Al]([OH])[OH])[C@@H](OS(=O)(=O)[O][Al]([OH])[OH])[C@@H]1OS(=O)(=O)[O][Al]([OH])[OH])[O][Al]([OH])[OH].[OH][Al]([OH])[OH].[OH][Al]([OH])[OH].[OH][Al]([OH])[OH].[OH][Al]([OH])[OH].[OH][Al]([OH])[OH].[OH][Al]([OH])[OH].[OH][Al]([OH])[OH].[OH][Al]([OH])[OH] | 0 | No-Dili-Concern |
| Cc1nnc(C(=O)NC(C)(C)c2nc(C(=O)NCc3ccc(F)cc3)c(O)c(=O)n2C)o1 | 7 | Most-Dili-Concern |

| SMILES | DILI_severity_class (Homo sapiens [1]) | DILI_Concern (Homo sapiens [2]) |
| --- | --- | --- |
| CCN(CC)C(=O)C1(c2ccccc2)CC1CN (centres undefined) | 7 | Most-Dili-Concern |
| O=C(O)COc1ccc(C(=O)c2cccs2)c(Cl)c1Cl | 8 | Most-Dili-Concern |
| O=S([O-])([O-])=S.[Na+].[Na+] | 0 | No-Dili-Concern |
| C/C=C1\NC(=O)[C@@H]2CSSCC/C=C/[C@@H](CC(=O)N[C@H](C(C)C)C(=O)N2)OC(=O)[C@H](C(C)C)NC1=O | 0 | No-Dili-Concern |
| C=CC[N+]1([C@H]2C[C@H]3[C@@H]4CC[C@H]5C[C@H](O)C(N6CCOCC6)C[C@]5(C)[C@H]4CC[C@]3(C)[C@H]2OC(C)=O)CCCC1 (some centres undefined) | 0 | No-Dili-Concern |
| CC(C)C[C@H](NC(=O)[C@H](Cc1c[nH]c2ccccc12)NC(=O)[C@H](Cc1ccc(O)cc1)NC(=O)[C@H](CO)NC(=O)[C@H](Cc1c[nH]c2ccccc12)NC(=O)[C@H](Cc1c[nH]cn1)NC(=O)[C@@H]1CCC(=O)N1)C(=O)N[C@@H](CCCNC(=N)N)C(=O)N1CCC[C@H]1C(=O)NCC(N)=O.O=C(O)c1cc2ccccc2c(Cc2c(O)c(C(=O)O)cc3ccccc23)c1O | 3 | Less-Dili-Concern |
| CC(=O)N[C@@H]1[C@@H](O[C@@H]2O[C@@H](C(=O)O)[C@@H](O)[C@H](O)[C@H]2O)[C@@H](OS(=O)(=O)O)[C@@H](CO)O[C@H]1O | 8 | Most-Dili-Concern |
| CCC(C)CCCCC(=O)N[C@@H](CCNCS(=O)(=O)O)C(=O)N[C@H](C(=O)N[C@@H](CCNCS(=O)(=O)O)C(=O)N[C@H]1CCNC(=O)[C@H]([C@@H](C)O)NC(=O)[C@H](CCNCS(=O)(=O)O)NC(=O)[C@H](CCNCS(=O)(=O)O)NC(=O)[C@H](CC(C)C)NC(=O)[C@@H](CC(C)C)NC(=O)[C@H](CCNCS(=O)(=O)O)NC1=O)[C@@H](C)O (some centres undefined) | 0 | No-Dili-Concern |
| CC1=C(CCC(=O)O)c2cc3[nH]c(cc4[nH]c(cc5nc(cc1n2)C(C)=C5C(C)OC(C)c1c(C)c2cc5nc(cc6nc(cc7[nH]c(cc1[nH]2)c(C)c7CCC(=O)O)C(CCC(=O)O)=C6C)C(C(C)O)=C5C)c(C)c4C(C)O)c(C)c3CCC(=O)O (centres undefined) | 0 | No-Dili-Concern |
| COc1ccc2[n-]c([S@+]([O-])Cc3ncc(C)c(OC)c3C)nc2c1.[Na+] | 4 | Less-Dili-Concern |
| O=C(O)c1cc(=O)c2cc(OCC(O)COc3cccc4oc(C(=O)O)cc(=O)c34)ccc2o1 (centres undefined) | 3 |  |
| C#C[C@@]1(OC(C)=O)CC[C@H]2[C@@H]3CCC4=CC(=O)CC[C@@H]4[C@H]3CC[C@@]21C | 0 | No-Dili-Concern |
| NCC1O[C@H](O[C@H]2[C@@H](O)[C@H](O[C@H]3[C@H](O)[C@@H](N)C[C@@H](N)[C@@H]3O[C@H]3O[C@H](CN)[C@@H](O)[C@H](O)[C@H]3N)O[C@@H]2CO)[C@H](N)[C@@H](O)[C@@H]1O (some centres undefined) | 0 | No-Dili-Concern |
| CCO[C@@H]1OC(=O)C[C@@H]1NC(=O)[C@@H]1CCCN2C(=O)CC[C@H](NC(=O)c3nccc4ccccc34)C(=O)N12 | 8 | Most-Dili-Concern |
| CCOC(=O)[C@H](CCc1ccccc1)N[C@@H](C)C(=O)N1CCC[C@H]1C(=O)O | 7 | Less-Dili-Concern |
| Cc1c(O)cccc1C(=O)N[C@@H](CSc1ccccc1)[C@H](O)CN1C[C@H]2CCCC[C@H]2C[C@H]1C(=O)NC(C)(C)C | 3 | Less-Dili-Concern |
| Nc1nc(N)c2nc(-c3ccccc3)c(N)nc2n1 | 5 | Less-Dili-Concern |
| COc1ccc(CCN(C)CCCC(C#N)(c2ccc(OC)c(OC)c2)C(C)C)cc1OC (centres undefined) |  | Less-Dili-Concern |
| N[C@@H](Cc1ccc(N(CCCl)CCCl)cc1)C(=O)O | 5 | Less-Dili-Concern |
| C=CC1=C(C(=O)O)N2C(=O)[C@@H](NC(=O)/C(=N\O)c3csc(N)n3)[C@H]2SC1 | 7 | Less-Dili-Concern |
| CC(=O)Nc1ccc(O)cc1 [ACETAMINOPHEN] |  | Most-Dili-Concern |
| CN(C)CCCN1c2ccccc2CCc2ccccc21 [IMIPRAMINE] |  | Less-Dili-Concern |
| Clc1ccccc1CN1CCc2sccc2C1 [TICLOPIDINE] |  | Most-Dili-Concern |

— ChEMBL document CHEMBL4028802, “DILIrank: the largest reference drug list ranked by the risk for developing drug-induced liver injury in humans” (Drug Discov Today, 2016)
